Measurements as given in PMC6546852, “Carbonyl Reduction of Flubendazole in the Human Liver: Strict Stereospecificity, Sex Difference, Low Risk of Drug Interactions” (Frontiers in Pharmacology, 2019).

Columns and labels:
[1] = molecular target: T1, carbonyl reductase 1 (CBR1) (Homo sapiens, UniProt P16152); assay: Inhibition of flubendazole reduction in pooled human liver cytosol by CBR1 inhibitors; type: biochemical; details: 10 µM FLU, NADPH, inhibitor 0-50 µM
T1 sequence (P16152 2-277 limits assumed): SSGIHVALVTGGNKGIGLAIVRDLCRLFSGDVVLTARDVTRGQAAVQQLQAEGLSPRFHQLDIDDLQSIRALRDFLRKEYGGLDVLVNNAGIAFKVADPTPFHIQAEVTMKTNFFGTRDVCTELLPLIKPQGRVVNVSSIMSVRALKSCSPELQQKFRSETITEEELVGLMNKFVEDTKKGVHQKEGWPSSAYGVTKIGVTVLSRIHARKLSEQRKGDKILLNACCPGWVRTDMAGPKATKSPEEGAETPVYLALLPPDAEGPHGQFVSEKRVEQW

human recombinant CBR1 = molecular target: T2, human recombinant CBR1 (Homo sapiens, UniProt P16152); assay: Specific activity of human recombinant CBR1 toward substrates (NADPH consumption at 340 nm); type: biochemical; details: 10 µM substrate
T2 construct: purchased MyBioSource (San Diego, CA, USA)
T2 sequence (P16152 1-277): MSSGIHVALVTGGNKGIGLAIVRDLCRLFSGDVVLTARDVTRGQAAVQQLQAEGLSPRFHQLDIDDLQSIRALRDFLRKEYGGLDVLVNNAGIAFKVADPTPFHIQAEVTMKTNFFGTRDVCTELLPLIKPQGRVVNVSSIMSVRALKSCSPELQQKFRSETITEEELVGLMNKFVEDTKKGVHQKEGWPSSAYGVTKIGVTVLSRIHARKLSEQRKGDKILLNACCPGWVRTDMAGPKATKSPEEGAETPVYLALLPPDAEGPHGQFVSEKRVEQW
Procedure: The human recombinant CBR1 activity was assayed using a slight modification of previously published method (Mate et al., [2008]). The assay was performed in four replicates and was repeated three times. […] The activity of CBR1 was assessed using 10-μM concentration of the substrates, MEN, DOX, and FLU. The consumption of NADPH in the reaction mixture, which served for the assessment of the reductase activity, was determined spectrophotometrically at 340 nm at 37°C using the microplate reader Tecan Infinite M200.

P-glycoprotein = test system: P-glycoprotein; set-up: method as in earlier work; details: ref Spagnuolo et al., 2010, Kralova et al., 2013, Michaelis et al., 2015, 2016; cited from earlier work
[2] = test system: doxorubicin reduction in pooled human liver cytosol; assay: Flubendazole effect on doxorubicin reduction (doxorubicinol formation) in pooled human liver cytosol; type: biochemical; details: for Doxorubicinol—cytosol (percent of the residual activity): 20 µM doxorubicin, NADPH
[3] = Water solubility of flubendazole; type: physicochemical; details: allowed only 10 µM as highest concentration in incubation mixtures
[4] = Kinetics of flubendazole reduction ((+)-FLUR formation) in pooled human liver cytosol; type: in vitro ADME; details: for Clint (intrinsic clearance, V′max/K′m) / K’m (apparent Michaelis constant) / V’max (apparent maximal velocity of (+)-FLUR formation): pooled cytosol; for V’max (apparent maximal velocity of (+)-FLUR formation): 0-10 µM FLU
[5] = test system: doxorubicin reduction in cytosol of cancer cells SW480; assay: Flubendazole effect on doxorubicin reduction (doxorubicinol formation) in cytosol of cancer cells SW480; type: biochemical, human; details: for Doxorubicinol—SW480 (percent of the residual activity): 20 µM doxorubicin, NADPH
[6] = Reduction of flubendazole in pooled human liver cytosol (chiral HPLC of FLUR enantiomers); type: in vitro ADME; details: human liver subcellular fractions
Procedure: Frozen pieces of liver were thawed at room temperature for up to 15 min and individual livers were homogenized in a 0.1 M sodium phosphate buffer, pH 7.4 at the ratio of 1:6 (v/v), using a Potter-Elvehjem homogenizer and sonication with Sonopolus (Bandelin, Germany). The suspension of the SW480 cells was homogenized using sonication only. The subcellular fractions were isolated by differential centrifugation of the homogenates (Gillette, [1971]) and stored at −80°C. Protein concentrations were assayed using the bicinchoninic acid (BCA) assay according to the manufacturer’s instructions (Sigma-Aldrich).
The cytosolic or microsomal fraction was incubated with FLU (10 μM). […]
Details concerning the HPLC analyses including validations were described in Nobilis et al. ([2008]). A chiral HPLC analysis was employed for the determination of reduced FLU (FLUR) enantiomers—(+)-FLUR and (−)-FLUR; concentrations of FLU, (+)-FLUR, and (−)-FLUR in the samples were determined using an internal standard method (I.S., albendazole). […] A tandem of an UV photodiode-array and a fluorescence detector was used for the determination of the abovementioned benzimidazole compounds.

SMILES	IC50 [1] [µM]	Specific activity of human recombinant CBR1 toward the substrate (in words) (human recombinant CBR1)	P-glycoprotein substrate (in words) (P-glycoprotein)	Doxorubicinol—cytosol (percent of the residual activity) ([2]; 2 µM flubendazole) [%]	Doxorubicinol—cytosol (percent of the residual activity) ([2]; 10 µM flubendazole) [%]	Inhibition of DOX reduction (in words) ([2]; human liver cytosol, FLU 2 and 10 µM)	Water solubility (in words) [3]	Clint (intrinsic clearance, V′max/K′m) ([4]; NADH coenzyme) [min⁻¹]	K’m (apparent Michaelis constant) ([4]; NADH coenzyme) [µM]	V’max (apparent maximal velocity of (+)-FLUR formation) ([4]; NADH coenzyme) [nM/min]	Clint (intrinsic clearance, V′max/K′m) ([4]; NADPH coenzyme) [min⁻¹]	K’m (apparent Michaelis constant) ([4]; NADPH coenzyme) [µM]	V’max (apparent maximal velocity of (+)-FLUR formation) ([4]; NADPH coenzyme) [nM/min]	Hepatic intrinsic clearance (in words) ([4]; pooled human liver cytosol)	Doxorubicinol—SW480 (percent of the residual activity) ([5]; 2 µM flubendazole) [%]	Doxorubicinol—SW480 (percent of the residual activity) ([5]; 10 µM flubendazole) [%]	Inhibition of DOX reduction (in words) ([5]; SW480 cytosol, FLU 2 and 10 µM)	Stereospecificity of carbonyl reduction (in words) [6]
CC1=CC(=O)c2ccccc2C1=O [MEN, menadione]	0.34 ± 0.26	highest	–	–	–	–	–	–	–	–	–	–	–	–	–	–	–	–
O=c1cc(-c2ccc(O)c(O)c2)oc2cc(O)cc(O)c12 [LUT, luteolin]	8.21 ± 3.71	–	–	–	–	–	–	–	–	–	–	–	–	–	–	–	–	–
COC(=O)Nc1nc2cc(C(=O)c3ccc(F)cc3)ccc2[nH]1 [flubendazole, [5-(4-fluorobenzoyl)-1H-benzimidazol-2-yl]-carbamic acid methyl ester]	–	significantly lower than to MEN	not a substrate for P-glycoprotein	98.0 ± 3.4	91.4 ± 4.9	did not inhibit	poor	0.000012	13.34 ± 3.07	0.161 ± 0.024	0.000023	19.91 ± 2.49	0.466 ± 0.043	very low	97.6 ± 3.4	96.7 ± 2.7	did not inhibit	strictly stereospecific
